≈ marks a conversion by molar mass, not a printed value. Where “and” joins values, the source holds several entries; their conditions need not be identical. Equal entries are not always repeated.
Columns and labels:
[1] = test system: GAPDH mRNA in Clone A cells; format: cell-based, human; settings: 0.1 and 1 μM HCV-796, throughout the 16-day period
[2] = test system: 1b, BB7 replicon variants with single NS5B mutations; assay: Replicon variant assay, several variants taken together; format: cell-based, Hepatitis C virus
Method: (§1) pBB7-replicon variant DNAs were linearized with Sca I, and in vitro transcription was performed using Ambion's […]® T7 High Yield Transcription kit (Austin, Tex.). Purified RNA transcripts were electroporated into Huh-7 cells in quadruplicates using a Biorad GENE PULSER® Electroporation System (Setting: 270V, 950 μF) (Hercules, Calif.). Stably transfected replicon variant cell lines were initially selected with 0.25 mg/ml G418 and stepped up to 1 mg/ml before further testing. One cell plate was stained with Crystal Violet to visualize the number of colonies and determine the colony formation efficiency. Individual cell clones from each plate were pooled and expanded for drug susceptibility testing.
(§2) The contribution of individual amino acid changes on drug resistance was assessed in replicon variants containing single amino acid mutations in NS5B in the background of the genotype 1b, BB7 adaptive replicon (Blight et al. (2000) Science 290:1972-74).
(§3) Drug susceptibility of the replicon-containing cells to various compounds was evaluated as described previously (Howe et al. (2004) Antimicrobial Agents Chem. 48:4813-21). Briefly, cells were treated with increasing concentrations of compounds in medium containing 2% FCS and no G418 for three days at 37° C. and 5% CO2. After incubation, total RNA from the replicon-containing cells was isolated. The levels of HCV, glyceraldehyde 3-phosphate dehydrogenase (GAPDH) and ribosomal (rRNA) RNAs were quantified using TAQMAN® (PE Applied Biosystems, Foster City, Calif.) reverse transcriptase PCR reactions. The amounts of HCV, 18S ribosomal, and GAPDH RNAs in each sample were estimated by comparing the number of cycles during the exponential phase of the PCR amplification with those in the corresponding standard curves. HCV RNA standards used for the construction of the standard curve were prepared by extracting the total RNA from the Clone A cells. The RNA sample was sent to National Genetics Institute to quantify HCV RNA. Total RNA extracted from Clone A cells was quantified by O.D.260 measurement and used for construction of the standard curves of rRNA and GAPDH. The concentrations of the compounds that inhibit 50% of the HCV RNA level (EC50) were determined using the MDL® LIFE SCIENCE WORKBENCH® (LSW) Data Analysis software (MDL Information Systems, San Leandro, Calif.) in Microsoft EXCEL®. The amounts of HCV or GAPDH RNAs in the samples were expressed as HCV RNA (copies) or GAPDH (ng), respectively, per μg of total RNA using rRNA as a marker for total RNA measurement.

[3] = biological target: T1, HCV NS5B enzyme BB7 (C316) (Hepatitis C virus genotype 1b, UniProt Q9WMX2); assay: biochemical
T1 construct: according to the protocol for NS5B-BB7dCT21-His as described; His (C); made in house; host or cells: E. coli
Method: All NS5B enzymes were expressed and purified according to the protocol for NS5B-BB7dCT21-His as described (Howe et al. (2004) Antimicrobial Agents Chem. 48:4813-21). Briefly, expression plasmids were transformed into E. coli cells and NS5B expression was initiated by the addition of isopropyl-beta-D-thiogalactopyranoside (IPTG). After 4 to 6 hours of incubation the cells were harvested and lysed. NS5B enzymes were purified by chromatography using a nickel affinity column (Talon, B D Biosciences, Clontech Laboratories, Inc., Mountain View, Calif.)) followed by a cation exchange column (Poros H S, Applied Biosystems, Foster City, Calif.).

796R(0.1 μM) cells = assay: HCV replicon 3-day assay in variant cells; format: cell-based, Hepatitis C virus
Method: (§4) All resistant cells were cultured at the indicated drug concentrations in the presence of 0.5 mg/ml G418 for at least 3 weeks before analysis.
(§5) The levels of HCV RNA were determined using a quantitative TAQMAN® RT-PCR (PE Applied Biosystems, Foster City, Calif.).
as §3

796R(1 μM) cells = assay: HCV replicon 3-day assay in variant cells; format: cell-based, Hepatitis C virus
Method: as §4, §5, §3

796R(10 μM) cells = assay: HCV replicon 3-day assay in variant cells; format: cell-based, Hepatitis C virus
Method: as §4, §5, §3

1b, BB7-C316N replicon = assay: Replicon variant assay (separate laboratory); format: cell-based; settings: Hepatitis C virus, read-out: HCV RNA EC50 (nM) ± SD
Method: as §1, with “Individual cell clones from each plate were pooled and expanded for drug susceptibility testing.” left out
as §2
Drug susceptibility of the replicon-containing cells to various compounds was evaluated as described previously (Howe et al. (2004) Antimicrobial Agents Chem. 48:4813-21). […] The levels of HCV, glyceraldehyde 3-phosphate dehydrogenase (GAPDH) and ribosomal (rRNA) RNAs were quantified using TAQMAN® (PE Applied Biosystems, Foster City, Calif.) reverse transcriptase PCR reactions. […] The RNA sample was sent to National Genetics Institute to quantify HCV RNA. […]

1b, BB7-S365A replicon = assay: Replicon variant 3-day assay; format: cell-based, Hepatitis C virus
Method: as §1, §2, §3

1b, BB7-S365T replicon = assay: Replicon variant 3-day assay; format: cell-based, Hepatitis C virus
Method: as §1, §2, §3

1b, BB7-M414T replicon = assay: Replicon variant 3-day assay; format: cell-based, Hepatitis C virus
Method: as §1, §2, §3

1b, BB7-C316F replicon = assay: Replicon variant 3-day assay; format: cell-based, Hepatitis C virus
Method: as §1, §2, §3

1b, BB7-I363V replicon = assay: Replicon variant 3-day assay; format: cell-based, Hepatitis C virus
Method: as §1, §2, §3

1b, BB7-L314F replicon = assay: Replicon variant 3-day assay; format: cell-based, Hepatitis C virus
Method: as §1, §2, §3

physchem = settings: plasma or biological fluid

For `CNC(=O)c1c(-c2ccc(F)cc2)oc2cc(N(CCO)S(C)(=O)=O)c(C3CC3)cc12` [HCV-796, 5-cyclopropyl-2-(4-fluorophenyl)-6-[(2-hydroxyethyl)(methylsulfonyl)amino]-N-methyl-1-benzofuran-3-carboxamide], which “level of housekeeping gene GAPDH mRNA” value [1] is on record?
The value was “remained essentially unchanged”.

What about the “effect on the susceptibility to HCV-796 (in words)” value ([2]; I363V and S368F replicon variants) of the same molecule?
The value was “modest effect”.

What about the Fold Reduced Susceptibility ([2]; M414I/V replicon variants, range) of the same molecule?
The Fold Reduced Susceptibility was 3-8 fold.

What about the IC50 [3] of the same molecule?
Its IC50 is 40 nM.

What about the “Fold Reduced Susceptibility” value (796R(0.1 μM) cells; 796R(0.1 μM) cells vs Clone A control) of the same molecule?
Its value is 23 fold.

What about the “Mean log10 Viral Reduction” value (796R(0.1 μM) cells; 796R(0.1 μM) cells, 56 μM compound, 3-day assay) of the same molecule?
Its value is 1.4 log10 and 1.4 ± 0.3 (56 μM) log10.

What about the EC50 (796R(0.1 μM) cells; Hepatitis C virus, 796R(0.1 μM) cells, HCV RNA, 72 hours) of the same molecule?
Its EC50 is 0.3 ± 0.2 µM.

And the “Fold Reduced Susceptibility” value (796R(1 μM) cells; 796R(1 μM) cells vs Clone A control)?
Its value is 618 fold.

What about the “Mean log10 Viral Reduction” value (796R(1 μM) cells; 796R(1 μM) cells, 56 μM compound, 3-day assay) of the same molecule?
The value was 0.7 log10 and 0.7 ± 0.2 (56 μM) log10.

And the EC50 (796R(1 μM) cells; Hepatitis C virus, 796R(1 μM) cells, HCV RNA, 72 hours)?
Its EC50 is 8 ± 5.2 µM.

And the “Fold Reduced Susceptibility” value (796R(10 μM) cells; 796R(10 μM) cells vs Clone A control)?
Its value is 6812 fold and >6812 fold.

What about the “Mean log10 Viral Reduction” value (796R(10 μM) cells; 796R(10 μM) cells, 56 μM compound, 3-day assay) of the same molecule?
Its value is 0.5 log10 and 0.5 ± 0.3 (56 μM) log10.

What about the EC50 (796R(10 μM) cells; Hepatitis C virus, 796R(10 μM) cells, HCV RNA, 72 hours) of the same molecule?
The EC50 was > 88 µM.

What about the EC50 (1b, BB7-C316N replicon) of the same molecule?
Its EC50 is 220 ± 110 nM.

What about the “Fold Resistance” value (1b, BB7-S365A replicon; BB7-S365A vs 1b, BB7) of the same molecule?
Its value is 41 fold.

What about the “Viral Load Reduction” value (1b, BB7-S365A replicon; BB7-S365A, 2240 nM HCV-796, 3-day assay) of the same molecule?
Its value is 1.7 ± 0.1 log.

What about the EC50 (1b, BB7-S365A replicon; Hepatitis C virus, 72 h, BB7-S365A, 3-day assay, read-out: HCV RNA EC50 (nM) ± SD) of the same molecule?
Its EC50 is 124 ± 41 nM.

What about the “Fold Resistance” value (1b, BB7-S365T replicon; BB7-S365T vs 1b, BB7) of the same molecule?
The value was 212 fold.

And the “Viral Load Reduction” value (1b, BB7-S365T replicon; BB7-S365T, 2240 nM HCV-796, 3-day assay)?
Its value is 0.6 ± 0.1 log.

What about the EC50 (1b, BB7-S365T replicon; Hepatitis C virus, 72 h, BB7-S365T, 3-day assay, read-out: HCV RNA EC50 (nM) ± SD) of the same molecule?
Its EC50 is 643 ± 168 nM.

And the “Fold Resistance” value (1b, BB7-M414T replicon; 1b, BB7-M414T vs 1b, BB7)?
Its value is 1 fold.

What about the “Viral Load Reduction” value (1b, BB7-M414T replicon; 1b, BB7-M414T, 2240 nM HCV-796, 3-day assay) of the same molecule?
Its value is 2.0 ± 0.2 log.

What about the “change of susceptibility to HCV-796 (in words)” value (1b, BB7-M414T replicon; M414T replicon vs wild type) of the same molecule?
Its value is “did not change the susceptibility”.

And the “Fold Resistance” value (1b, BB7-C316F replicon; BB7-C316F vs 1b, BB7)?
Its value is 130 fold.

What about the “Viral Load Reduction” value (1b, BB7-C316F replicon; BB7-C316F, 2240 nM HCV-796, 3-day assay) of the same molecule?
The value was 0.8 ± 0.5 log.

What about the EC50 (1b, BB7-C316F replicon; Hepatitis C virus, 72 h, BB7-C316F, 3-day assay, read-out: HCV RNA EC50 (nM) ± SD) of the same molecule?
The EC50 was 392 nM.

What about the “Fold Resistance” value (1b, BB7-I363V replicon; BB7-I363V vs 1b, BB7) of the same molecule?
The value was 5 fold.

What about the “Viral Load Reduction” value (1b, BB7-I363V replicon; BB7-I363V, 2240 nM HCV-796, 3-day assay) of the same molecule?
Its value is 1.4 ± 0.1 log.

And the EC50 (1b, BB7-I363V replicon; Hepatitis C virus, 72 h, BB7-I363V, 3-day assay, read-out: HCV RNA EC50 (nM) ± SD)?
The EC50 was 16 ± 5 nM.

And the “Fold Resistance” value (1b, BB7-L314F replicon; 1b, BB7-L314F vs 1b, BB7)?
Its value is 1 fold.

What about the “Viral Load Reduction” value (1b, BB7-L314F replicon; 1b, BB7-L314F, 2240 nM HCV-796, 3-day assay) of the same molecule?
The value was 1.6 ± 0.3 log.

And the EC50 (1b, BB7-L314F replicon; Hepatitis C virus, 72 h, 1b, BB7-L314F, 3-day assay, read-out: HCV RNA EC50 (nM) ± SD)?
The EC50 was 4 ± 2 nM.

What about the “change of susceptibility to HCV-796 (in words)” value (1b, BB7-L314F replicon; L314F replicon vs wild type) of the same molecule?
The value was “did not change the susceptibility”.

What about the solubility (physchem) of the same molecule?
The solubility was 56 µM (≈ 25 µg/mL).
